These results are taken from ChEMBL document CHEMBL2029328, “Identification and structure-activity relationships of a novel series of estrogen receptor ligands based on 7-thiabicyclo[2.2.1]hept-2-ene-7-oxide” (J Med Chem, 2012).

In assay [1] the target is T1, Estrogen receptor (Homo sapiens) (UniProt P03372).
T1 sequence (whole entry): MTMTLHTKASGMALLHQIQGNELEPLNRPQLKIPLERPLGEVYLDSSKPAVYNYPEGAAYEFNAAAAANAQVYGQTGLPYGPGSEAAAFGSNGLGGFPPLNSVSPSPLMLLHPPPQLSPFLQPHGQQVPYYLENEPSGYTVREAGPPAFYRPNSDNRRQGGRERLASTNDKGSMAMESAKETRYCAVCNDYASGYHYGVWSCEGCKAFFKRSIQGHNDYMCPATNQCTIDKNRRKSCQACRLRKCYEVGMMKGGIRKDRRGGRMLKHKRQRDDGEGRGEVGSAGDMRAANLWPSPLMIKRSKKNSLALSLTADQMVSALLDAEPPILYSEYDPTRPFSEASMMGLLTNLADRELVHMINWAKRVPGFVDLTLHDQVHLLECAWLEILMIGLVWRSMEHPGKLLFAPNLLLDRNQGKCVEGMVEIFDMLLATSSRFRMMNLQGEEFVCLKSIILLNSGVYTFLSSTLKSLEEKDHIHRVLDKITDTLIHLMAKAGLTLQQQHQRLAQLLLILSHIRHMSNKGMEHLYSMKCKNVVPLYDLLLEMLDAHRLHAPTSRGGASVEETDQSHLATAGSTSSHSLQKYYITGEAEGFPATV
Put plainly: Displacement of [3H]estradiol from human ERalpha after 18 to 24 hrs. For orientation: Loss of bound radioactivity is the signal in a displacement assay; it reports binding, not function.

Assay [2] addresses T2, Estrogen receptor beta (Homo sapiens, UniProt Q92731). Put plainly: Displacement of [3H]estradiol from human ERbeta after 18 to 24 hrs.
Assay [3] concerns the target T1, Estrogen receptor (Homo sapiens). The assay is described as follows: Agonist activity at human ERalpha expressed in HepG2 cells up to 10^-5 M after 24 hrs by luciferase reporter gene assay relative to E2. It is filed as functional, cell-based.
The target of assay [4] is T2, Estrogen receptor beta. Put plainly: Agonist activity at human ERbeta expressed in HepG2 cells up to 10^-5 M after 24 hrs by luciferase reporter gene assay relative to E2. It is filed as functional, cell-based.
The target of a further assay is T3, Estrogen receptor (Homo sapiens, UniProt P03372).
T3 sequence (P03372 whole entry): T1 sequence (whole entry)

The target of assay [5] is T2, Estrogen receptor beta.
Description: Agonist activity at human ERbeta expressed in HepG2 cells after 24 hrs by luciferase reporter gene assay

Molecules are shown by their SMILES.

T2 sequence (Q92731 whole entry): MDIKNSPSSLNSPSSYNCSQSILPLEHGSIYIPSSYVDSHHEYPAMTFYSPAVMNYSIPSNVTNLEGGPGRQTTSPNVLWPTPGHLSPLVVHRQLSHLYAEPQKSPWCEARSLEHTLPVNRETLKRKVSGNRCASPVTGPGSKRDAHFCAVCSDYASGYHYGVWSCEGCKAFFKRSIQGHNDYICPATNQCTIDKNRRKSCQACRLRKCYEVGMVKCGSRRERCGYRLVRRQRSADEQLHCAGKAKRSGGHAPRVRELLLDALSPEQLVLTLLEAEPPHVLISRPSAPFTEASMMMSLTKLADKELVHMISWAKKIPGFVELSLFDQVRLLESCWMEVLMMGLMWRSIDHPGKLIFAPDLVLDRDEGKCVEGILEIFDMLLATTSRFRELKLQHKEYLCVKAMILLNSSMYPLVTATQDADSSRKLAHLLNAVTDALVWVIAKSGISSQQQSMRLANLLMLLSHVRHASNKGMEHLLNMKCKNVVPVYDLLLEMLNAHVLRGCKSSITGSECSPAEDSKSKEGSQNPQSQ

As to `Cc1cc(O)ccc1C1=C(c2ccc(O)cc2C)[C@H]2[C@H]3C(=O)N(c4ccccc4)C(=O)[C@H]3[C@@H]1[S+]2[O-]` (mixture of isomers), the RBA came out at 0.016% in assay [1] and 0.014% on Estrogen receptor beta [2]. Also, the Activity stood at 65% in assay [3] and 82% on Estrogen receptor beta [4]. For the same compound, the EC50 (usually the concentration needed to bring the measured effect to its halfway point) stood at 150 nM on Estrogen receptor and 800 nM at Estrogen receptor beta [5].
